# Measurements from PubChem BioAssay AID330 (DTP/NCI, 2004).
# Several values for one entry are separate records, joined by “and”; a condition that tells them apart may be missing. Equal entries are not always repeated. Toxic doses and inconclusive results are not listed.
# System: P388 leukemia ip, CD2F1 mice, survival T/C
# Experiment: NCI In Vivo Anticancer Drug Screen. Data for tumor model P388 Leukemia (intraperitoneal) in CD2F1 (CDF1) mice
# Details: endpoint: median survival time, higher = longer survival
# In short: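 Mice carrying the transplanted tumor received test compound or vehicle. Survival was recorded in each group, and the value is the treated-group measurement divided by that of the vehicle-treated control group.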
# [1] = dose: 60.0 mg/kg/injection, schedule: Q01DX005 (ip), vehicle: saline with Tween-80
# [2] = dose: 120.0 mg/kg/injection, schedule: Q01DX005 (ip), vehicle: saline with Tween-80
# [3] = dose: 240.0 mg/kg/injection, schedule: Q01DX005 (ip), vehicle: saline with Tween-80
# [4] = dose: 50.0 mg/kg/injection, schedule: Q01DX009 (ip), vehicle: saline with Tween-80
# [5] = dose: 100.0 mg/kg/injection, schedule: Q01DX009 (ip), vehicle: saline with Tween-80
# [6] = dose: 200.0 mg/kg/injection, schedule: Q01DX009 (ip), vehicle: saline with Tween-80
# [7] = dose: 50.0 mg/kg/injection, schedule: Q01DX005 (ip), vehicle: Klucel (hydroxypropylcellulose) (HPC)
# [8] = dose: 100.0 mg/kg/injection, schedule: Q01DX005 (ip), vehicle: Klucel (hydroxypropylcellulose) (HPC)
# [9] = dose: 200.0 mg/kg/injection, schedule: Q01DX005 (ip), vehicle: Klucel (hydroxypropylcellulose) (HPC)
# [10] = dose: 50.0 mg/kg/injection, schedule: Q01DX005 (ip), vehicle: saline
# [11] = dose: 100.0 mg/kg/injection, schedule: Q01DX005 (ip), vehicle: saline
# [12] = dose: 200.0 mg/kg/injection, schedule: Q01DX005 (ip), vehicle: saline
# [13] = dose: 100.0 mg/kg/injection, schedule: Q01DX001 (ip), vehicle: saline with Tween-80
# [14] = dose: 200.0 mg/kg/injection, schedule: Q01DX001 (ip), vehicle: saline with Tween-80
# [15] = dose: 400.0 mg/kg/injection, schedule: Q01DX001 (ip), vehicle: saline with Tween-80
structure (smiles),measurement,setting,value
CC(C)C12CCC3(C)CCC1(C)CCC32O (centres undefined),T/C,"dose: 12.0 mg/kg/injection, schedule: Q01DX009 (ip), vehicle: Klucel (hydroxypropylcellulose) (HPC)",111 % of control
same,T/C,"dose: 24.0 mg/kg/injection, schedule: Q01DX009 (ip), vehicle: Klucel (hydroxypropylcellulose) (HPC)",96 % of control
same,T/C,"dose: 48.0 mg/kg/injection, schedule: Q01DX009 (ip), vehicle: Klucel (hydroxypropylcellulose) (HPC)",96 % of control
same,T/C,"dose: 96.0 mg/kg/injection, schedule: Q01DX009 (ip), vehicle: Klucel (hydroxypropylcellulose) (HPC)",111 % of control
COC(=O)Nc1nc2ccc(C(=O)OCC(C)C)cc2[nH]1,T/C,"dose: 100.0 mg/kg/injection, schedule: Q04DX002 (ip), vehicle: saline with Tween-80",98 % of control
same,T/C,"dose: 200.0 mg/kg/injection, schedule: Q04DX002 (ip), vehicle: saline with Tween-80",90 % of control
CC1(C)COC2(c3ccccc3)N(c3ccccc3)C(=O)ON12 (centres undefined),T/C,"dose: 60.0 mg/kg/injection, schedule: Q01DX001 (ip), vehicle: Klucel (hydroxypropylcellulose) (HPC)",100 % of control
same,T/C,"dose: 120.0 mg/kg/injection, schedule: Q01DX001 (ip), vehicle: Klucel (hydroxypropylcellulose) (HPC)",100 % of control
same,T/C,"dose: 240.0 mg/kg/injection, schedule: Q01DX001 (ip), vehicle: Klucel (hydroxypropylcellulose) (HPC)",103 % of control
O=[N+]([O-])c1cc2c([N+](=O)[O-])cccc2o1,T/C,"dose: 100.0 mg/kg/injection, schedule: Q04DX003 (ip), vehicle: Klucel (hydroxypropylcellulose) (HPC)",102 % of control
same,T/C,"dose: 200.0 mg/kg/injection, schedule: Q04DX003 (ip), vehicle: Klucel (hydroxypropylcellulose) (HPC)",103 % of control
C1CN1c1nnc(N2CC2)nn1,T/C,"dose: 7.5 mg/kg/injection, schedule: Q01DX005 (ip), vehicle: saline",178 % of control
same,T/C,"dose: 30.0 mg/kg/injection, schedule: Q01DX005 (ip), vehicle: saline",260 % of control
N/N=C1\c2ccccc2-c2cccc(N)c21,T/C,[1],102 % of control
same,T/C,[2],112 % of control
same,T/C,[3],99 % of control
C=CC1=C(C)C(/C=c2/[nH]/c(=C\c3[nH]c(/C=C4/NC(=O)C(C)=C4C=C)c(C)c3CCC(=O)O)c(CCC(=O)O)c2C)=NC1=O,T/C,[4],95 % of control
same,T/C,[5],91 % of control
same,T/C,[6],88 % of control
CC1=N/C(=C\c2cccc(Br)c2)C(=O)O1,T/C,[7],98 % of control
same,T/C,[8],98 % of control
same,T/C,[9],98 % of control
O=c1ccn(C2CCCCC2)c(=O)[nH]1,T/C,"dose: 6.25 mg/kg/injection, schedule: Q01DX005 (ip), vehicle: Klucel (hydroxypropylcellulose) (HPC)",99 % of control
same,T/C,"dose: 12.5 mg/kg/injection, schedule: Q01DX005 (ip), vehicle: Klucel (hydroxypropylcellulose) (HPC)",95 % of control
same,T/C,"dose: 25.0 mg/kg/injection, schedule: Q01DX005 (ip), vehicle: Klucel (hydroxypropylcellulose) (HPC)",91 % of control
Clc1ccc2c(NCCCCCCCCNc3c4ccccc4nc4cc(Cl)ccc34)c3ccccc3nc2c1,T/C,"dose: 0.63 mg/kg/injection, schedule: Q01DX009 (ip), vehicle: other",112 % of control
same,T/C,"dose: 1.25 mg/kg/injection, schedule: Q01DX009 (ip), vehicle: other",108 % of control
same,T/C,"dose: 2.5 mg/kg/injection, schedule: Q01DX009 (ip), vehicle: other",110 % of control
same,T/C,"dose: 3.75 mg/kg/injection, schedule: Q01DX009 (ip), vehicle: other",108 % of control
same,T/C,"dose: 5.0 mg/kg/injection, schedule: Q01DX009 (ip), vehicle: other",112 % of control
same,T/C,"dose: 7.5 mg/kg/injection, schedule: Q01DX009 (ip), vehicle: other",110 % of control
same,T/C,"dose: 10.0 mg/kg/injection, schedule: Q01DX009 (ip), vehicle: other",110 % of control
same,T/C,"dose: 15.0 mg/kg/injection, schedule: Q01DX009 (ip), vehicle: other",112 % of control
same,T/C,"dose: 20.0 mg/kg/injection, schedule: Q01DX009 (ip), vehicle: other",120 % of control
O=C(O)CC(CS(=O)CP(=O)(O)O)C(=O)O (centres undefined),T/C,"dose: 60.0 mg/kg/injection, schedule: Q01DX005 (ip), vehicle: saline",93 % of control
same,T/C,"dose: 120.0 mg/kg/injection, schedule: Q01DX005 (ip), vehicle: saline",98 % of control
same,T/C,"dose: 240.0 mg/kg/injection, schedule: Q01DX005 (ip), vehicle: saline",95 % of control
CCC(=O)Cc1nc2n(c1O)/C(=N/C(=O)Nc1ccc(Cl)cc1)N=N2,T/C,[1],100 % of control
same,T/C,[2],98 % of control
same,T/C,[3],98 % of control
CN1C2CCC1C(Br)C(=O)C2 (centres undefined),T/C,[10],100 % of control
same,T/C,[11],108 % of control (2×) and 109 % of control
same,T/C,[12],118 % of control
COC1OC2COc3ccccc3OC2C(NC#N)C1OC (centres undefined),T/C,"dose: 60.0 mg/kg/injection, schedule: Q01DX005 (ip), vehicle: Klucel (hydroxypropylcellulose) (HPC)",112 % of control
same,T/C,"dose: 120.0 mg/kg/injection, schedule: Q01DX005 (ip), vehicle: Klucel (hydroxypropylcellulose) (HPC)",108 % of control
same,T/C,"dose: 240.0 mg/kg/injection, schedule: Q01DX005 (ip), vehicle: Klucel (hydroxypropylcellulose) (HPC)",107 % of control
CCN(CC)CC(=O)Nc1ccc2c(c1)C(=O)c1ccc(NC(=O)CN(CC)CC)cc1C2=O,T/C,[7],90 % of control
same,T/C,"dose: 50.0 mg/kg/injection, schedule: Q01DX005 (ip), vehicle: acid diluted with saline",100 % of control
same,T/C,[8],93 % of control
same,T/C,"dose: 100.0 mg/kg/injection, schedule: Q01DX005 (ip), vehicle: acid diluted with saline",103 % of control
same,T/C,[9],90 % of control
same,T/C,"dose: 200.0 mg/kg/injection, schedule: Q01DX005 (ip), vehicle: acid diluted with saline",106 % of control
C=C1CCN(c2ccc(C)cc2)C1=O,T/C,"dose: 4.0 mg/kg/injection, schedule: Q01DX009 (ip), vehicle: saline + alcohol",100 % of control
same,T/C,"dose: 8.0 mg/kg/injection, schedule: Q01DX009 (ip), vehicle: saline + alcohol",100 % of control
same,T/C,"dose: 16.0 mg/kg/injection, schedule: Q01DX009 (ip), vehicle: saline + alcohol",96 % of control
same,T/C,"dose: 64.0 mg/kg/injection, schedule: Q01DX009 (ip), vehicle: saline + alcohol",94 % of control
CC1(C)OCC(C2OC3OC(C)(C)OC3C2=C(Br)Br)O1 (centres undefined),T/C,[1],91 % of control
same,T/C,[2],100 % of control
same,T/C,[3],89 % of control
C/C(=C\c1ccccc1)c1ccccn1,T/C,[10],99 % of control
same,T/C,[11],105 % of control
same,T/C,[12],113 % of control
O=c1cc(-c2ccc(OCc3ccccc3)c(-c3c(OCc4ccccc4)cc(OCc4ccccc4)c4c(=O)cc(-c5ccc(OCc6ccccc6)cc5)oc34)c2)oc2cc(OCc3ccccc3)cc(OCc3ccccc3)c12,T/C,"dose: 25.0 mg/kg/injection, schedule: Q01DX001 (ip), vehicle: saline with Tween-80",93 % of control
same,T/C,"dose: 50.0 mg/kg/injection, schedule: Q01DX001 (ip), vehicle: saline with Tween-80",89 % of control
same,T/C,[13],87 % of control
same,T/C,"dose: 200.0 mg/kg/injection, schedule: Q01DX001 (ip), vehicle: Klucel (hydroxypropylcellulose) (HPC)",89 % of control
same,T/C,"dose: 400.0 mg/kg/injection, schedule: Q01DX001 (ip), vehicle: Klucel (hydroxypropylcellulose) (HPC)",88 % of control
Cc1cc(C)c(C(=O)CCl)c(C)c1C(=O)CCl,T/C,[13],102 % of control
same,T/C,[14],110 % of control
same,T/C,[15],109 % of control
CCCCOC(=O)CCC(CC(=O)OCCCC)C(=O)OCCCC (centres undefined),T/C,[10],103 % of control
same,T/C,[11],103 % of control
same,T/C,[12],105 % of control
C=C1C(=O)C23C(O)CC4C(C)(C)C(OC(C)=O)C(OC(C)=O)CC4(C)C2CCC1C3O (centres undefined),T/C,"dose: 11.88 mg/kg/injection, schedule: Q01DX005 (ip), vehicle: Klucel (hydroxypropylcellulose) (HPC)",115 % of control
same,T/C,"dose: 23.75 mg/kg/injection, schedule: Q01DX005 (ip), vehicle: Klucel (hydroxypropylcellulose) (HPC)",112 % of control
same,T/C,"dose: 47.5 mg/kg/injection, schedule: Q01DX005 (ip), vehicle: Klucel (hydroxypropylcellulose) (HPC)",112 % of control
CCOC(=O)C/C(=N\Nc1ccc([N+](=O)[O-])cc1[N+](=O)[O-])c1ccccc1,T/C,[13],100 % of control
same,T/C,[14],100 % of control
same,T/C,[15],100 % of control
c1ccc(-c2ccc(-c3csnn3)cc2)cc1,T/C,"dose: 12.5 mg/kg/injection, schedule: Q01DX009 (ip), vehicle: saline with Tween-80",100 % of control
same,T/C,"dose: 25.0 mg/kg/injection, schedule: Q01DX009 (ip), vehicle: saline with Tween-80",95 % of control
same,T/C,[4],91 % of control and 94 % of control
same,T/C,[5],91 % of control
same,T/C,[6],88 % of control
